Consider 25 compounds from ChEMBL document CHEMBL3351475, “Synthesis and anti-tumor activity of glycosyl oxadiazoles derivatives” (Bioorg Med Chem Lett, 2014).

In test [1] the test system is MDA-MB-231. Kind of test: Growth inhibition of human MDA-MB-231 cells at 100 uM after 24 hrs by MTT assay. Type of test: functional. The conditions noted are these: MDA-MB-231, 24 h.
For test [2], the system named is MDA-MB-231. Nature of the test: Growth inhibition of human MDA-MB-231 cells after 24 hrs by MTT assay. Type of test: functional, cell-based. The conditions noted are these: MDA-MB-231, 24 h.

Structures are written as SMILES.

Compound `O=C(N/N=C/c1ccccc1)c1ccc(O[C@@H]2O[C@H](CO)[C@@H](O)[C@H](O)[C@H]2O)cc1` registered an inhibition at 100 µM in the test on MDA-MB-231 [1] of 3.56%.
The same measure, in the same setting: for `CC(C)/C=N/NC(=O)c1ccc(O[C@@H]2O[C@H](CO)[C@@H](O)[C@H](O)[C@H]2O)cc1` the value was 1.7%.
In the test on MDA-MB-231 [1], `O=C(N/N=C/C1CCCCC1)c1ccc(O[C@@H]2O[C@H](CO)[C@@H](O)[C@H](O)[C@H]2O)cc1` showed an inhibition at 100 µM of 0.88%.
The compound `CCCCC/C=N/NC(=O)c1ccc(O[C@@H]2O[C@H](CO)[C@@H](O)[C@H](O)[C@H]2O)cc1` came in with an inhibition at 100 µM with MDA-MB-231 [1] of 11%.
For the compound `O=C(N/N=C/c1cccc(Cl)c1)c1ccc(O[C@@H]2O[C@H](CO)[C@@H](O)[C@H](O)[C@H]2O)cc1`, the inhibition at 100 µM in the test with MDA-MB-231 [1] came to 5.02%.
The same measure, in the same setting: for `O=C(N/N=C/c1cccc([N+](=O)[O-])c1)c1ccc(O[C@@H]2O[C@H](CO)[C@@H](O)[C@H](O)[C@H]2O)cc1` the value was 6.23%.
Regarding `O=C(N/N=C/c1ccc([N+](=O)[O-])cc1)c1ccc(O[C@@H]2O[C@H](CO)[C@@H](O)[C@H](O)[C@H]2O)cc1`, 100 µM produced 7.12% inhibition with MDA-MB-231 [1].
`N#Cc1cccc(/C=N/NC(=O)c2ccc(O[C@@H]3O[C@H](CO)[C@@H](O)[C@H](O)[C@H]3O)cc2)c1` had an inhibition at 100 µM in the test on MDA-MB-231 [1] of 6.17%.
With `CC(=O)OC[C@H]1O[C@@H](Oc2ccc(-c3nnc(-c4ccccc4)o3)cc2)[C@H](OC(C)=O)[C@@H](OC(C)=O)[C@@H]1OC(C)=O`, 5970 nM corresponded to half-maximal inhibition in the test on MDA-MB-231 [2] (IC50). For the same compound, the inhibition at 100 µM in the test with MDA-MB-231 [1] worked out at 29.5%.
In turn, `COc1ccc(-c2nnc(-c3ccc(O[C@@H]4O[C@H](COC(C)=O)[C@@H](OC(C)=O)[C@H](OC(C)=O)[C@H]4OC(C)=O)cc3)o2)cc1` returned an IC50 in the test with MDA-MB-231 [2] of 9230 nM. For the same compound, testing at 100 µM in the test on MDA-MB-231 [1] gave an inhibition of 26%.
In the test with MDA-MB-231 [2], `CC(=O)OC[C@H]1O[C@@H](Oc2ccc(-c3nnc(-c4ccc(Cl)cc4)o3)cc2)[C@H](OC(C)=O)[C@@H](OC(C)=O)[C@@H]1OC(C)=O` showed an IC50 of 890 nM. Moreover, 100 µM produced 42.1% inhibition with MDA-MB-231 [1].
In the test on MDA-MB-231 [2], `CC(=O)OC[C@H]1O[C@@H](Oc2ccc(-c3nnc(-c4ccc(F)cc4)o3)cc2)[C@H](OC(C)=O)[C@@H](OC(C)=O)[C@@H]1OC(C)=O` displayed an IC50 of 260 nM. This compound gave an inhibition at 100 µM in the test with MDA-MB-231 [1] of 54.1%.
Regarding `CC(=O)OC[C@H]1O[C@@H](Oc2ccc(-c3nnc(-c4ccc(C)cc4)o3)cc2)[C@H](OC(C)=O)[C@@H](OC(C)=O)[C@@H]1OC(C)=O`, the inhibition at 100 µM in the test with MDA-MB-231 [1] is 13.1%.
The compound `CC(=O)OC[C@H]1O[C@@H](Oc2ccc(-c3nnc(C(C)C)o3)cc2)[C@H](OC(C)=O)[C@@H](OC(C)=O)[C@@H]1OC(C)=O` showed an inhibition at 100 µM with MDA-MB-231 [1] of 11.9%.
As to `CC(=O)OC[C@H]1O[C@@H](Oc2ccc(-c3nnc(C4CCCCC4)o3)cc2)[C@H](OC(C)=O)[C@@H](OC(C)=O)[C@@H]1OC(C)=O`, at 100 µM the inhibition in the test on MDA-MB-231 [1] was 11.6%.
Compound `CCCCCc1nnc(-c2ccc(O[C@@H]3O[C@H](COC(C)=O)[C@@H](OC(C)=O)[C@H](OC(C)=O)[C@H]3OC(C)=O)cc2)o1` returned an IC50 in the test with MDA-MB-231 [2] of 8340 nM. The compound also gave an inhibition at 100 µM with MDA-MB-231 [1] of 21.5%.
Regarding `CC(=O)OC[C@H]1O[C@@H](Oc2ccc(-c3nnc(-c4cccc(Cl)c4)o3)cc2)[C@H](OC(C)=O)[C@@H](OC(C)=O)[C@@H]1OC(C)=O`, it took 1350 nM to reach half-maximal inhibition with MDA-MB-231 [2] (IC50). Further, 100 µM produced 36.7% inhibition with MDA-MB-231 [1].
The like results for `CC(=O)OC[C@H]1O[C@@H](Oc2ccc(-c3nnc(-c4cccc([N+](=O)[O-])c4)o3)cc2)[C@H](OC(C)=O)[C@@H](OC(C)=O)[C@@H]1OC(C)=O` were, in that order, 3600 nM and 40.1%.
The like results for `CC(=O)OC[C@H]1O[C@@H](Oc2ccc(-c3nnc(-c4ccc([N+](=O)[O-])cc4)o3)cc2)[C@H](OC(C)=O)[C@@H](OC(C)=O)[C@@H]1OC(C)=O` were, in that order, 950 nM and 58%.
The like results for `CC(=O)OC[C@H]1O[C@@H](Oc2ccc(-c3nnc(-c4cccc(C#N)c4)o3)cc2)[C@H](OC(C)=O)[C@@H](OC(C)=O)[C@@H]1OC(C)=O` were, in that order, 1080 nM and 44.1%.
In turn, `COc1ccc(/C=N/NC(=O)c2ccc(O[C@@H]3O[C@H](CO)[C@@H](O)[C@H](O)[C@H]3O)cc2)cc1` (stereo in doubt) yielded an inhibition at 100 µM with MDA-MB-231 [1] of 11.3%.
In the test with MDA-MB-231 [1], `O=C(N/N=C/c1ccc(Cl)cc1)c1ccc(O[C@@H]2O[C@H](CO)[C@@H](O)[C@H](O)[C@H]2O)cc1` (stereo in doubt) had an inhibition at 100 µM of 2.26%.
For `O=C(N/N=C/c1ccc(F)cc1)c1ccc(O[C@@H]2O[C@H](CO)[C@@H](O)[C@H](O)[C@H]2O)cc1` (stereo in doubt), at 100 µM the inhibition in the test with MDA-MB-231 [1] was 9.91%.
For `Cc1ccc(/C=N/NC(=O)c2ccc(O[C@@H]3O[C@H](CO)[C@@H](O)[C@H](O)[C@H]3O)cc2)cc1` (stereo in doubt), in the test with MDA-MB-231 [1], the inhibition at 100 µM is 9.28%.
In the test on MDA-MB-231 [2], `CN(CCOc1ccc(CC2SC(=O)NC2=O)cc1)c1ccccn1` (stereo not given) [ROSIGLITAZONE] registered an IC50 of 5230 nM. The compound further gave an inhibition at 100 µM in the test on MDA-MB-231 [1] of 34.2%.

Usually inhibition stands for the relative decrease from the control value, in per cent. A low value points to a weak effect. As usually defined, the IC50 is the concentration that gives 50% inhibition.
